Earlier results on 1 molecule are cited in patent publication US20260345593A1, “ORAL FORMULATION OF N-PYRIDINYL ACETAMIDE DERIVATIVE FOR TREATING INTERSTITIAL LUNG DISEASE” (AstraZeneca AB, priority 2022, published 2026).

This data set relates to carbon tetrachloride-induced hepatic fibrosis in mice. Particulars: mice (Bunyard 2019); cited from earlier work.

On to `Cc1cc(-c2nccc3c2ccn3CC(=O)Nc2ccc(-c3cnccn3)cn2)ccn1` [AZD5055, 2-[4-(2-methyl-4-pyridyl)pyrrolo[3,2-c]pyridin-1-yl]-N-(5-pyrazin-2-yl-2-pyridyl)acetamide], for which the “carbon tetrachloride-induced hepatic fibrosis” value was “reduces”.
